Measurements as given in article PMC8231969, “Characterization of Two NMN Deamidase Mutants as Possible Probes for an NMN Biosensor” (International Journal of Molecular Sciences, 2021).
Read-outs that look alike come from different tables or passages of the source.

B1: S29A PncC: catalytically inactive S29A mutant of E. coli NMN deamidase PncC (protein)
chain: MTDSELMQLSEQVGQALKARGATVTTAEACTGGWVAKVITDIAGSSAWFERGFVTYSNEAKAQMIGVREETLAQHGAVSEPVVVEMAIGALKAARADYAVSISGIAGPDGGSEEKPVGTVWFAFATARGEGITRRECFSGDRDAVRRQATAYALQTLWQQFLQNT
modifications: left off: His tag (from the HisTrap HP purification; vector pCA24N), end not stated, state not stated
B2: K61Q PncC: catalytically inactive K61Q mutant of E. coli NMN deamidase PncC (protein)
chain: MTDSELMQLSEQVGQALKARGATVTTAESCTGGWVAKVITDIAGSSAWFERGFVTYSNEAQAQMIGVREETLAQHGAVSEPVVVEMAIGALKAARADYAVSISGIAGPDGGSEEKPVGTVWFAFATARGEGITRRECFSGDRDAVRRQATAYALQTLWQQFLQNT
modifications: left off: His tag (from the HisTrap HP purification; vector pCA24N), end not stated, state not stated
B3: WT PncC: wild type NMN deamidase (PncC) from E. coli, recombinant (protein)
chain: MTDSELMQLSEQVGQALKARGATVTTAESCTGGWVAKVITDIAGSSAWFERGFVTYSNEAKAQMIGVREETLAQHGAVSEPVVVEMAIGALKAARADYAVSISGIAGPDGGSEEKPVGTVWFAFATARGEGITRRECFSGDRDAVRRQATAYALQTLWQQFLQNT
modifications: left off: His tag (from the HisTrap HP purification; vector pCA24N), end not stated, state not stated
notes: wild type NMN deamidase (PncC) from E. coli, recombinant

What was measured:
WT PncC (NMN deamidase) = test system: T1, WT PncC (NMN deamidase); assay: Fluorescence-based thermal shift binding assay, wild-type PncC; design: species or system E. coli; conditions: 1 mM NMN
T1 construct: made in house; host or cells: E. coli BL21(DE3)
Method: (§1) Protein melting temperature (Tm) was determined by fluorescence-based thermal shift assay using fluoroprobe SYPRO Orange dye (Invitrogen, Waltham, MA, USA). The assay was performed in a RotorGene 3000 real-time PCR (Corbett, Biocompare, San Francisco, CA, USA). The assay mixture contained 50 mM Hepes/NaOH, pH 7.5, 300 mM NaCl, 1 mM TCEP, 1 μM protein, Sypro orange at 10-fold dilution from a 5000-fold stock, and the various ligands at the tested concentrations, in a final volume of 25 μL. The mixtures were pre-heated at 40 °C for 5 s, then heated to 50 °C in 1 s, and finally heated from 50 to 99 °C with a heating-up rate of 0.5 °C every 5 s. The fluorescence intensity was measured with Ex/Em: 470/585 nm. The melting temperature was determined by taking the maximum point of the slope-derivative peak. Kd values were determined by plotting the percentage of unfolded proteins as a function of nucleotide concentration at a fixed temperature, after normalization of the unfolding curves. Fitting of the data was performed using the equations reported in [34]. Three independent experiments were carried out and values were reported as the means ± standard deviation.

S29A PncC [1] = molecular target: T2, S29A PncC (Escherichia coli, UniProt P0A6G3, S29A); assay: biochemical; format: binding, E. coli
T2 construct: made in house; host or cells: E. coli BL21(DE3)

Y56A PncC = test system: T3, Y56A PncC; assay: Fluorescence-based thermal shift binding assay, Y56A PncC; design: species or system E. coli
T3 construct: made in house; host or cells: E. coli BL21(DE3)
Method: as §1

K61Q PncC [2] = molecular target: T4, K61Q PncC (Escherichia coli, UniProt P0A6G3, K61Q); assay: biochemical; format: binding, E. coli
T4 construct: made in house; host or cells: E. coli BL21(DE3)

R142A PncC = test system: T5, R142A PncC; assay: Fluorescence-based thermal shift binding assay, R142A PncC; design: species or system E. coli
T5 construct: made in house; host or cells: E. coli BL21(DE3)
Method: as §1

S29A PncC [3] = molecular target: T2, S29A PncC; format: binding, E. coli
From the text: (§2) Experimental data were processed using the OriginPro 8.0 (OriginLab Corporation, Northampton, MA, USA). A non-linear curve analysis (Hill1 plot) was used for plotting the F0/F values in function of the metabolite concentration, to obtain the Kd value.

K61Q PncC [4] = molecular target: T4, K61Q PncC; format: binding, E. coli
Method: as §2
Percentage of the K61Q protein that would exist in complex with NMN in a cellular setting was calculated based on the Kd value, by using the equation: %=100/1+Kd/[NMN]

[5] = test system: glutamine binding protein (GlnBP); conditions: GlnBP 3 µM, 96 µM nucleotide
Method: Steady-state measurements were performed using an ISS_K2 fluorometer (ISS, Urbana-Champaign, IL, USA), equipped with a one-cell temperature-controlled sample holder. […] Excitation and emission slit widths were fixed at 0.5 and 1.0 nm, respectively. […] The nucleotides were added to reach the indicated final concentration (from 0.18 to 96 µM) with an incubation interval of 10 min. Triplicate readings were done for each experimental point. Experiments were repeated three times (for NMN and NaMN) or twice (for all the other metabolites). Controls experiments were performed using the E. coli Glutamine Binding Protein (GlnBP, 3µM), with increasing concentration of NMN or NaMN, at the same conditions.
Percentages of reduction of fluorescence intensities compared to buffer, were calculated as follow: (normalized fluorescence in presence of analyte at a given [µM]/normalized fluorescence in presence of corresponding volume of buffer) × 100.

[6] = Thermal stability (melting temperature) of PncC proteins without ligand; format: physicochemical; conditions: absence of NMN
Method: as §1

| Molecule | S29A PncC fluorescence quenching (%) vs buffer (S29A PncC [3]; nucleotide 0.185 µM) | S29A PncC fluorescence quenching (%) vs buffer (S29A PncC [3]; nucleotide 0.375 µM) | S29A PncC fluorescence quenching (%) vs buffer (S29A PncC [3]; nucleotide 0.75 µM) | S29A PncC fluorescence quenching (%) vs buffer (S29A PncC [3]; nucleotide 3 µM) | S29A PncC fluorescence quenching (%) vs buffer (S29A PncC [3]; nucleotide 6 µM) | S29A PncC fluorescence quenching (%) vs buffer (S29A PncC [3]; nucleotide 12 µM) | S29A PncC fluorescence quenching (%) vs buffer (S29A PncC [3]; nucleotide 24 µM) | S29A PncC fluorescence quenching (%) vs buffer (S29A PncC [3]; nucleotide 48 µM) | K61Q PncC fluorescence quenching (%) vs buffer (K61Q PncC [4]; nucleotide 0.185 µM) | K61Q PncC fluorescence quenching (%) vs buffer (K61Q PncC [4]; nucleotide 0.375 µM) | K61Q PncC fluorescence quenching (%) vs buffer (K61Q PncC [4]; nucleotide 0.75 µM) | K61Q PncC fluorescence quenching (%) vs buffer (K61Q PncC [4]; nucleotide 1.5 µM) | K61Q PncC fluorescence quenching (%) vs buffer (K61Q PncC [4]; nucleotide 3 µM) | K61Q PncC fluorescence quenching (%) vs buffer (K61Q PncC [4]; nucleotide 6 µM) | K61Q PncC fluorescence quenching (%) vs buffer (K61Q PncC [4]; nucleotide 12 µM) | K61Q PncC fluorescence quenching (%) vs buffer (K61Q PncC [4]; nucleotide 24 µM) | K61Q PncC fluorescence quenching (%) vs buffer (K61Q PncC [4]; nucleotide 48 µM) | quenching of fluorescence of GlnBP [5] | Tm (melting temperature of the protein) [6] | other results |
| --- | --- | --- | --- | --- | --- | --- | --- | --- | --- | --- | --- | --- | --- | --- | --- | --- | --- | --- | --- | --- |
| NC(=O)c1ccc[n+]([C@@H]2O[C@H](COP(=O)([O-])O)[C@@H](O)[C@H]2O)c1 [NMN, nicotinamide mononucleotide] | 0.48% | 0.58% | 2.58% | 17.42% | 17.55% | 27.06% | 37.52% | 46.79% | 1.09% | 1.84% | 3.19% | 4.87% | 6.26% | 8.11% | 12.12% | 20.07% | 38.03% | 4.3% | – | Tm (+NMN) (WT PncC (NMN deamidase)): 92.2 °C; ΔTm (WT PncC (NMN deamidase)): 6.1 °C; Tm (+NMN) (S29A PncC [1]; S29A PncC, 1 mM NMN): 95.5 °C; ΔTm at 1000 µM (S29A PncC [1]; read-out: ΔTm): 10 °C; Tm (+NMN) (Y56A PncC; 1 mM NMN): 83.6 °C; Effect of NMN on Tm (Y56A PncC; 1.0 mM NMN): not affected; Tm (+NMN) (K61Q PncC [2]; K61Q PncC, 1 mM NMN): 86.2 °C; ΔTm at 1000 µM (K61Q PncC [2]; read-out: ΔTm): 18.7 °C; Tm (+NMN) (R142A PncC; 1 mM NMN): 52.4 °C; Effect of NMN on Tm (R142A PncC; 1.0 mM NMN): not affected; Hill coefficient (nH) (S29A PncC [3]; S29A PncC, Trp fluorescence): 0.98± 0.1; Hill coefficient (nH) (K61Q PncC [4]; K61Q PncC, Trp fluorescence): 1.3±0.2 |
| O=C(O)c1ccc[n+]([C@@H]2O[C@H](COP(=O)([O-])O)[C@@H](O)[C@H]2O)c1 [NaMN, nicotinic acid mononucleotide] | 1.79% | 2.56% | 6.47% | 30.74% | 30.87% | 40.52% | 47.93% | 52.28% | 0.71% | 1.11% | 2.05% | 2.12% | 2.82% | 2.80% | 4.14% | 4.9% | 7.14% | 4.3% | – | Kd (thermal shift) (K61Q PncC [2]; K61Q PncC, at 70 °C): not possible to determine Kd; S29A PncC fluorescence quenching (%) vs buffer (S29A PncC [3]; nucleotide 1.5 µM): 20.83%; apparent Kd (Trp fluorescence) (K61Q PncC [4]; K61Q PncC, at 25 °C): not possible to determine Kd; K61Q PncC fluorescence quenching (%) vs buffer (K61Q PncC [4]; nucleotide 96 µM): 10.68% |
| B1 | – | – | – | – | – | – | – | – | – | – | – | – | – | – | – | – | – | – | 85.5 °C | – |
| B2 | – | – | – | – | – | – | – | – | – | – | – | – | – | – | – | – | – | – | 67.5 °C | – |
| B3 | – | – | – | – | – | – | – | – | – | – | – | – | – | – | – | – | – | – | 86.1 °C | – |
